How the values were obtained:
[1] = test system: human pancreatic cancer Mia PaCa-2 cells; assay: Pharmacodynamics in vivo, subcutaneously transplanted Mia PaCa-2 tumor model; parameters: species or system Balb/c Nude mice; conditions: day 22 of administration
Protocol: Assay on pharmacodynamics in vivo in a subcutaneously transplanted tumor model of human pancreatic cancer Mia PaCa-2 cells in Balb/c Nude mice
Cell culture: Human pancreatic cancer Mia PaCa-2 cells (ATCC-CRL-1420) were cultured in monolayer in vitro in DMEM medium with 10% fetal calf serum and 2.5% horse serum in a 37° C., 5% carbon dioxide incubator. Cells were passaged by routine digestion with trypsin-EDTA twice a week. When the cell saturation reached 80%-90% and the cell number met the requirement, the cells were harvested, counted, and resuspended in an appropriate amount of PBS. Matrigel was added in a ratio of 1:1 to obtain a cell suspension with a cell density of 25×10^6 cells/mL.
Cell inoculation: 0.2 mL (5×10^6 cells/mouse) of Mia PaCa-2 cells (plus Matrigel, 1:1 by volume) were subcutaneously inoculated into the right back of each mouse. When the average tumor volume reached 190 mm^3, mice were randomized into groups based on tumor volume and administration was initiated according to the protocol in Table 15.
Tumor diameter was measured with vernier caliper twice a week. The calculation formula of tumor volume was: V=0.5a×b^2, where a and b represent the long and short diameters of the tumor, respectively.
The anti-tumor efficacy of compound was evaluated by TGI (%) or relative tumor proliferation rate T/C (%). Relative tumor proliferation rate T/C (%)=TRTV/CRTV×100% (TRTV: RTV in a treatment group; CRTV: RTV in a negative control group). The relative tumor volume (RTV) was calculated according to results of tumor measurement, and the calculation formula was RTV=Vt/V0, where V0 was average tumor volume measured at the time of administration by group (i.e., D0), and Vt was average tumor volume at the time of a certain measurement. For TRTV and CRTV, data on the same day were used.
TGI (%) reflected tumor growth inhibition rate. TGI(%)=[(1−(average tumor volume at the end of administration of a treatment group−average tumor volume at the beginning of administration of the treatment group))/(average tumor volume at the end of treatment of a vehicle control group−average tumor volume at the beginning of treatment of the vehicle control group)]×100%.

[2] = Metabolic stability in hepatocytes, CD-1 mice; format: in vitro ADME; conditions: mouse, cryopreserved hepatocytes, CD-1 mice hepatocytes
Protocol: Metabolic stabilities of assay compound in hepatocytes of CD-1 mice, SD rats, beagle dogs, cynomolgus monkeys, and human were assayed, respectively.
Several 96-well sample precipitation plates were prepared and named T0, T15, T30, T60, T90, T120, T0-MC, T120-MC and blank substrates, respectively. The recovery medium and incubation medium were taken out in advance and placed in a 37° C. water bath for pre-heating. Cryopreserved hepatocytes were removed from the liquid nitrogen tank and immediately immersed in a 37° C. water bath (approximately 90 seconds). After the cryopreserved hepatocytes had thawed and loosened, they were poured into a centrifuge tube containing 40 mL of recovery medium, and the tube was gently inverted to allow the cells to be resuspended in the recovery medium. The cells were centrifuged at 100×g at room temperature for 5 min, and the supernatant was removed. The hepatocytes were resuspended in an appropriate volume of incubation medium, and the cell viability was calculated by Trypan Blue staining method. 198 μL of hepatocyte suspension (0.51×10^6 cells/mL) was added to the preheated incubation plate. For the culture medium control group, 198 μL of hepatocyte-free incubation medium was added to T0-MC and T120-MC incubation plate. All incubation plates were pre-incubated in a 37° C. incubator for 10 minutes. Then 2 μL of working solutions of the assay sample and the control compound were added, respectively, and the mixture was mixed well. The incubation plate was immediately put into the shaker in the incubator, and the reaction was initiated while starting the timer. For each time point of each compound, 2 duplicate samples were prepared. The incubation conditions were 37° C., saturated humidity, and 5% CO2. […] All samples were mixed well and analyzed by LC/MS/MS.

[3] = Stability in whole blood, cynomolgus monkeys; format: in vitro ADME; conditions: 5 μM, 37° C.
Protocol: Stabilities of the assay compound in whole blood of CD-1 mice, SD rats, beagle dogs and cynomolgus monkeys were assayed, respectively. On the day of the assay or the day before the assay, fresh whole blood from CD-1 mice, SD rats, beagle dogs, and cynomolgus monkeys was collected using anticoagulant EDTA-K2. Prior to the start of the assay, the whole blood was mixed with PBS in 1:1 (v: v) and the mixture was preheated in a 37° C. water bath for 10 to 20 minutes. 96-well incubation plates were prepared and named T0, T30, T60, […], respectively. In the corresponding incubation plates, including T0, T30, T60 and […] incubation plates, 2 μL of working solutions of the compound or the control compound were mixed with 98 μL of blank whole blood of mice, rats, canines, monkeys and human in duplicate. All samples were incubated in a 37° C. water bath. The final incubation concentration of the compound was 5 μM and the final incubation concentration of the control compound was 2 μM. At the end of incubation for each time point, the corresponding incubation plate was removed and 100 μL of ultrapure water was immediately added to the corresponding sample wells, and mixed well. 800 μL of a solution of 200 ng/mL tolbutamide and labetalol in acetonitrile was added to precipitate the protein. […] 150 μL of supernatant was taken out and analyzed by LC/MS/MS.

[4] = test system: KRAS^G12C-mutated MIA-PA-CA-2 cells; assay: cells; conditions: Homo sapiens, MIA PaCa-2, 72 h
Protocol: The main reagent used in this assay included CellTiter-Glo (Promega, Cat. No. G7573).
The main instrument used in this assay was PerkinElmer EnVision multi-function microplate reader.
The fluorescence value was read by EnVision. • 6) Data analysis: The inhibition rate of cells in each well was calculated according to the following equation:
Y=Bottom+(Top−Bottom)/(1+10^((Log IC50−X)*HillSlope))

In the case of C=C(F)C(=O)N1CCN(c2nc(OC[C@@]34CCCN3C[C@H](F)C4)nc3c2CO[C@H](c2c(F)c(N)cc(C)c2C(F)(F)F)C3)C[C@@H]1CC#N [Compound of formula (I)], the Average tumor volume ([1]; 10 mg/kg PO QD) is reported as 249.87 mm^3, the T/C ([1]; 10 mg/kg PO QD) is reported as 12.39% and the TGI ([1]; 10 mg/kg PO QD) is reported as 93.06%. It also gave an Average tumor volume ([1]; 30 mg/kg PO QD) of 124.14 mm^3, a T/C ([1]; 30 mg/kg PO QD) of 6.16% and a TGI ([1]; 30 mg/kg PO QD) of 99.64%. The half-life at 1 μM [2] was 9.5 min, the hepatocyte CLint at 1 μM ([2]; read-out: CLint(hep)) was 146 µL/min/1e6 cells and the CLint scaled at 1 μM ([2]; read-out: CLint(liver)) was 1740 mL/min/kg. For the same compound, the “Detection of assay compound content within 240 min” value [3] was 77% and the IC50 [4] was 0.44 nM.

Reference: patent publication US20250129102A1, “CRYSTAL FORM OF PYRIMIDINE HETEROCYCLIC COMPOUND AND PREPARATION METHOD THEREFOR” (D3 Bio (Wuxi) Co., Ltd., priority 2021, published 2025)
